Measurements published in patent US10021881B2, “Vaporized administration of pesticides” (priority 2016, dated 2018).

Tests used:
Penicillium expansum [1] = experiment: In vivo assay of vaporized pyrimethanil to inhibit Penicillium expansum in apples
Description: An in vivo assay was used to evaluate the ability of vaporized pyrimethanil to control pathogenic infection of apples by Penicillium expansum. […] Each wound was then inoculated with 30 μL of 1×10^6 spores/mL suspension of P. expansum.
Fruits were evaluated in order to observe disease incidence (i.e., browning) and fungal sporulation diameter (both measured in millimeters, mm).

Botrytis cinerea [2] = experiment: In vivo assay of vaporized pyrimethanil to inhibit Botrytis cinerea in grapes; settings: for Gray Mold Severity (0-4): scale 0 no disease to 4 exceptionally high
Source text: An in vivo assay was used to evaluate the ability of vaporized pyrimethanil to control pathogenic infection of Table grapes by Botrytis cinerea.

Penicillium expansum [3] = experiment: Fogging versus vaporizing treatment of apples, browning of top and bottom wounds; assay type: in vivo; settings: 2.66 g in tunnel, 72 hours at 21° C., evaluated 4 days after removal, FIG. 23
Description: An in vivo assay was used to evaluate the ability of vaporized pyrimethanil to control pathogenic infection of apples by Penicillium expansum as compared to fogging methods of apple treatment. Vaporized treatments of apples were performed as previous described in Examples 1-6, with the exception of using a 1 m wide×1 m high×8 m deep tunnel (FIG. 11). A 2.66 g amount of pyrimethanil was either fogged or vaporized into the tunnel. Fruits were exposed to the treatment for 72 hours at 21° C., and then removed from the tunnel and evaluated 4 days after removal in order to observe and/or determine the area of browning wounds at the top and bottom of the fruit (see FIG. 23).

[4] = Particle size estimate from settling of fogged or vaporized pyrimethanil on Petri plates (HPLC); assay type: physicochemical; settings: for estimated pyrimethanil particle size: vaporized
Penicillium digitatum = experiment: In vivo assay of vaporized pyrimethanil to inhibit Penicillium digitatum in oranges
Description: An in vivo assay was used to evaluate the ability of vaporized pyrimethanil to control pathogenic infection of oranges by Penicillium digitatum. […] Each wound was then inoculated with 30 μL of 1×10^6 spores/mL suspension of P. digitatum.
Fruits were evaluated in order to observe growth of water-soaked lesions and fungal sporulation diameter (both measured in millimeters, mm).

Botrytis cinerea [5] = experiment: In vivo assay of vaporized pyrimethanil to inhibit Botrytis cinerea in blueberries; settings: for Gray Mold Severity (0-4): scale 0 no disease to 4 exceptionally high
Source text: An in vivo assay was used to evaluate the ability of vaporized pyrimethanil to control pathogenic infection of blueberries by Botrytis cinerea.

[6] = 0.04 mg/L, Day 0 (after 3 days at 21° C.)
[7] = 0.04 mg/L, Day 1 (after 3 days at 21° C.)
[8] = 0.04 mg/L, Day 2 (after 3 days at 21° C.)
[9] = 0.04 mg/L, Day 3 (after 3 days at 21° C.)
[10] = 0.2 mg/L, Day 0 (after 3 days at 21° C.)
[11] = 0.2 mg/L, Day 1 (after 3 days at 21° C.)
[12] = 0.2 mg/L, Day 2 (after 3 days at 21° C.)
[13] = 0.2 mg/L, Day 3 (after 3 days at 21° C.)
[14] = 1 mg/L, Day 0 (after 3 days at 21° C.)
[15] = 1 mg/L, Day 1 (after 3 days at 21° C.)
[16] = 1 mg/L, Day 2 (after 3 days at 21° C.)
[17] = 1 mg/L, Day 3 (after 3 days at 21° C.)
[18] = 0.01 mg/L, Day 0 (after 3 days at 21° C.)
[19] = 0.01 mg/L, Day 1 (after 3 days at 21° C.)
[20] = 0.01 mg/L, Day 2 (after 3 days at 21° C.)
[21] = 0.01 mg/L, Day 3 (after 3 days at 21° C.)
[22] = 0.03 mg/L, Day 0 (after 3 days at 21° C.)
[23] = 0.03 mg/L, Day 1 (after 3 days at 21° C.)
[24] = 0.03 mg/L, Day 2 (after 3 days at 21° C.)
[25] = 0.03 mg/L, Day 3 (after 3 days at 21° C.)
[26] = 0.1 mg/L, Day 0 (after 3 days at 21° C.)
[27] = 0.1 mg/L, Day 1 (after 3 days at 21° C.)
[28] = 0.1 mg/L, Day 2 (after 3 days at 21° C.)
[29] = 0.1 mg/L, Day 3 (after 3 days at 21° C.)
[30] = 0.3 mg/L, Day 0 (after 3 days at 21° C.)
[31] = 0.3 mg/L, Day 1 (after 3 days at 21° C.)
[32] = 0.3 mg/L, Day 2 (after 3 days at 21° C.)
[33] = 0.3 mg/L, Day 3 (after 3 days at 21° C.)

SMILES: Cc1cc(C)nc(Nc2ccccc2)n1 [pyrimethanil, 4,6-Dimethyl-N-phenylpyrimidin-2-amine]
- Browning (mm) (Penicillium expansum [1]; [6]): 10.6 mm
- Fungal Sporulation (mm) (Penicillium expansum [1]; [6]): 2.6 mm
- Browning (mm) (Penicillium expansum [1]; [7]): 16.2 mm
- Fungal Sporulation (mm) (Penicillium expansum [1]; [7]): 2.1 mm
- Browning (mm) (Penicillium expansum [1]; [8]): 23.1 mm
- Fungal Sporulation (mm) (Penicillium expansum [1]; [8]): 2.8 mm
- Browning (mm) (Penicillium expansum [1]; [9]): 28.8 mm
- Fungal Sporulation (mm) (Penicillium expansum [1]; [9]): 3.1 mm
- Browning (mm) (Penicillium expansum [1]; [10]): 5.3 mm
- Fungal Sporulation (mm) (Penicillium expansum [1]; [10]): 0.3 mm
- Browning (mm) (Penicillium expansum [1]; [11]): 8.1 mm
- Fungal Sporulation (mm) (Penicillium expansum [1]; [11]): 0.8 mm
- Browning (mm) (Penicillium expansum [1]; [12]): 12.7 mm
- Fungal Sporulation (mm) (Penicillium expansum [1]; [12]): 1.4 mm
- Browning (mm) (Penicillium expansum [1]; [13]): 16.2 mm
- Fungal Sporulation (mm) (Penicillium expansum [1]; [13]): 2.6 mm
- Browning (mm) (Penicillium expansum [1]; [14]): 3.4 mm
- Fungal Sporulation (mm) (Penicillium expansum [1]; [14]): 0.1 mm
- Browning (mm) (Penicillium expansum [1]; [15]): 5.6 mm
- Fungal Sporulation (mm) (Penicillium expansum [1]; [15]): 0.7 mm
- Browning (mm) (Penicillium expansum [1]; [16]): 8.8 mm
- Fungal Sporulation (mm) (Penicillium expansum [1]; [16]): 0.8 mm
- Browning (mm) (Penicillium expansum [1]; [17]): 11.4 mm
- Fungal Sporulation (mm) (Penicillium expansum [1]; [17]): 1.6 mm
- Gray Mold Incidence (%) (Botrytis cinerea [2]; [18]): 100.0%
- Gray Mold Severity (0-4) (Botrytis cinerea [2]; [18]): 1.6
- Gray Mold Incidence (%) (Botrytis cinerea [2]; [19]): 100.0%
- Gray Mold Severity (0-4) (Botrytis cinerea [2]; [19]): 2.0
- Gray Mold Incidence (%) (Botrytis cinerea [2]; [20]): 100.0%
- Gray Mold Severity (0-4) (Botrytis cinerea [2]; [20]): 2.0
- Gray Mold Incidence (%) (Botrytis cinerea [2]; [21]): 100.0%
- Gray Mold Severity (0-4) (Botrytis cinerea [2]; [21]): 3.6
- Gray Mold Incidence (%) (Botrytis cinerea [2]; [22]): 100.0%
- Gray Mold Severity (0-4) (Botrytis cinerea [2]; [22]): 1.4
- Gray Mold Incidence (%) (Botrytis cinerea [2]; [23]): 100.0%
- Gray Mold Severity (0-4) (Botrytis cinerea [2]; [23]): 2.0
- Gray Mold Incidence (%) (Botrytis cinerea [2]; [24]): 100.0%
- Gray Mold Severity (0-4) (Botrytis cinerea [2]; [24]): 2.0
- Gray Mold Incidence (%) (Botrytis cinerea [2]; [25]): 100.0%
- Gray Mold Severity (0-4) (Botrytis cinerea [2]; [25]): 3.4
- Gray Mold Incidence (%) (Botrytis cinerea [2]; [26]): 94.4%
- Gray Mold Severity (0-4) (Botrytis cinerea [2]; [26]): 0.5
- Gray Mold Incidence (%) (Botrytis cinerea [2]; [27]): 98.1%
- Gray Mold Severity (0-4) (Botrytis cinerea [2]; [27]): 0.7
- Gray Mold Incidence (%) (Botrytis cinerea [2]; [28]): 98.1%
- Gray Mold Severity (0-4) (Botrytis cinerea [2]; [28]): 1.1
- Gray Mold Incidence (%) (Botrytis cinerea [2]; [29]): 98.1%
- Gray Mold Severity (0-4) (Botrytis cinerea [2]; [29]): 1.8
- Gray Mold Incidence (%) (Botrytis cinerea [2]; [30]): 16.7%
- Gray Mold Severity (0-4) (Botrytis cinerea [2]; [30]): 0.1
- Gray Mold Incidence (%) (Botrytis cinerea [2]; [31]): 94.4%
- Gray Mold Severity (0-4) (Botrytis cinerea [2]; [31]): 0.5
- Gray Mold Incidence (%) (Botrytis cinerea [2]; [32]): 94.4%
- Gray Mold Severity (0-4) (Botrytis cinerea [2]; [32]): 0.8
- Gray Mold Incidence (%) (Botrytis cinerea [2]; [33]): 100.0%
- Gray Mold Severity (0-4) (Botrytis cinerea [2]; [33]): 1.3
- browning at the bottom of the fruit, vaporized compared with fogged (Penicillium expansum [3]): much less area (mm) of browning
- browning on the top of the fruit, vaporized compared with fogged (Penicillium expansum [3]): comparable browning
- percent of total pyrimethanil settled on the plates ([4]; FOG (MeOH + PYR), Settling Time 7.5 Minutes, Particle Size 5.9 (μm)): 61%
- percent of total pyrimethanil settled on the plates ([4]; FOG (MeOH + PYR), Settling Time 15 Minutes, Particle Size 4.1 (μm)): 77%
- percent of total pyrimethanil settled on the plates ([4]; FOG (MeOH + PYR), Settling Time 30 Minutes, Particle Size 2.8 (μm)): 100%
- percent of total pyrimethanil settled on the plates ([4]; FOG (MeOH + PYR), Settling Time 60 Minutes, Particle Size 1.9 (μm)): 100%
- percent of total pyrimethanil settled on the plates ([4]; FOG (MeOH + PYR), Settling Time 360 Minutes, Particle Size 0.75 (μm)): 100%
- percent of total pyrimethanil settled on the plates ([4]; VAPOR (100% Technical PYR), Settling Time 60 Minutes, Particle Size 1.9 (μm)): 26%
- percent of total pyrimethanil settled on the plates ([4]; VAPOR (100% Technical PYR), Settling Time 360 Minutes, Particle Size 0.75 (μm)): 91%
- particle size ([4]; fog particles, 100% settled after 30 minutes): approximately 2.8 micron
- estimated pyrimethanil particle size ([4]; 26% settled after 60 minutes): 1.9 micron
- estimated pyrimethanil particle size ([4]; 91% settled after 360 minutes): 0.75 micron
- Fungal Sporulation (mm) (Penicillium digitatum; [6]): 1.1 mm
- Water soaked Lesion (mm) (Penicillium digitatum; [6]): 0.0 mm
- Fungal Sporulation (mm) (Penicillium digitatum; [7]): 1.4 mm
- Water soaked Lesion (mm) (Penicillium digitatum; [7]): 0.0 mm
- Fungal Sporulation (mm) (Penicillium digitatum; [8]): 2.1 mm
- Water soaked Lesion (mm) (Penicillium digitatum; [8]): 0.0 mm
- Fungal Sporulation (mm) (Penicillium digitatum; [10]): 0.6 mm
- Water soaked Lesion (mm) (Penicillium digitatum; [10]): 0.0 mm
- Fungal Sporulation (mm) (Penicillium digitatum; [11]): 0.8 mm
- Water soaked Lesion (mm) (Penicillium digitatum; [11]): 0.0 mm
- Fungal Sporulation (mm) (Penicillium digitatum; [12]): 2.4 mm
- Water soaked Lesion (mm) (Penicillium digitatum; [12]): 1.5 mm
- Fungal Sporulation (mm) (Penicillium digitatum; [14]): 1.8 mm
- Water soaked Lesion (mm) (Penicillium digitatum; [14]): 0.0 mm
- Fungal Sporulation (mm) (Penicillium digitatum; [15]): 2.0 mm
- Water soaked Lesion (mm) (Penicillium digitatum; [15]): 0.0 mm
- Fungal Sporulation (mm) (Penicillium digitatum; [16]): 2.1 mm
- Water soaked Lesion (mm) (Penicillium digitatum; [16]): 0.0 mm
- Gray Mold Incidence (%) (Botrytis cinerea [5]; [18]): 92.6%
- Gray Mold Severity (0-4) (Botrytis cinerea [5]; [18]): 0.9
- Gray Mold Incidence (%) (Botrytis cinerea [5]; [19]): 96.3%
- Gray Mold Severity (0-4) (Botrytis cinerea [5]; [19]): 1.1
- Gray Mold Incidence (%) (Botrytis cinerea [5]; [20]): 98.8%
- Gray Mold Severity (0-4) (Botrytis cinerea [5]; [20]): 1.4
- Gray Mold Incidence (%) (Botrytis cinerea [5]; [21]): 98.8%
- Gray Mold Severity (0-4) (Botrytis cinerea [5]; [21]): 2.1
- Gray Mold Incidence (%) (Botrytis cinerea [5]; [22]): 82.7%
- Gray Mold Severity (0-4) (Botrytis cinerea [5]; [22]): 0.7
- Gray Mold Incidence (%) (Botrytis cinerea [5]; [23]): 97.5%
- Gray Mold Severity (0-4) (Botrytis cinerea [5]; [23]): 1.1
- Gray Mold Incidence (%) (Botrytis cinerea [5]; [24]): 97.5%
- Gray Mold Severity (0-4) (Botrytis cinerea [5]; [24]): 1.3
- Gray Mold Incidence (%) (Botrytis cinerea [5]; [25]): 97.5%
- Gray Mold Severity (0-4) (Botrytis cinerea [5]; [25]): 1.7
- Gray Mold Incidence (%) (Botrytis cinerea [5]; [26]): 64.2%
- Gray Mold Severity (0-4) (Botrytis cinerea [5]; [26]): 0.5
- Gray Mold Incidence (%) (Botrytis cinerea [5]; [27]): 87.8%
- Gray Mold Severity (0-4) (Botrytis cinerea [5]; [27]): 0.9
- Gray Mold Incidence (%) (Botrytis cinerea [5]; [28]): 94.8%
- Gray Mold Severity (0-4) (Botrytis cinerea [5]; [28]): 1.1
- Gray Mold Incidence (%) (Botrytis cinerea [5]; [29]): 94.6%
- Gray Mold Severity (0-4) (Botrytis cinerea [5]; [29]): 1.7
- Gray Mold Incidence (%) (Botrytis cinerea [5]; [30]): 22.2%
- Gray Mold Severity (0-4) (Botrytis cinerea [5]; [30]): 0.2
- Gray Mold Incidence (%) (Botrytis cinerea [5]; [31]): 33.8%
- Gray Mold Severity (0-4) (Botrytis cinerea [5]; [31]): 0.2
- Gray Mold Incidence (%) (Botrytis cinerea [5]; [32]): 51.2%
- Gray Mold Severity (0-4) (Botrytis cinerea [5]; [32]): 0.3
- Gray Mold Incidence (%) (Botrytis cinerea [5]; [33]): 52.0%
- Gray Mold Severity (0-4) (Botrytis cinerea [5]; [33]): 0.3
